Test results from patent US20150141411A1, “SUBSTITUTED 3,4-DIHYDRO-2H-PYRIDO[1,2-A]PYRAZINE-1,6-DIONE DERIVATIVES USEFUL FOR THE TREATMENT OF (INTER ALIA) ALZHEIMER'S DISEASE” (Janssen Pharmaceuticals, Inc., priority 2012, published 2015).

What was measured:
γ-secretase [1] = target: T1, γ-secretase (Homo sapiens, UniProt P49768); assay: Screening for γ-secretase-modulating activity: Aβ42 in supernatant of SKNBE2 cells carrying hAPP 695 wild type (Alphalisa); assay type: cell-based; conditions: SKNBE2 human neuroblastoma cells carrying hAPP 695 wild type, overnight incubation, Aβ42 in cell supernatant
T1 construct: endogenous in cells; host or cells: SKNBE2 human neuroblastoma cells (carrying hAPP 695 wild type as substrate)
Method in brief: (§1)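 SKNBE2 neuroblastoma cells expressing wild-type hAPP 695 plated at 10^4 cells/well in Ultraculture with test compound, incubated overnight at 37° C. Aβ42 (C-terminal/N-terminal antibody pair) and Aβtotal (N-terminal/4G8 pair) in supernatant quantified by AlphaLISA. IC50 from 4-parameter fit of percent of compound-free control.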

γ-secretase [2] = target: T1, γ-secretase; assay: Screening for γ-secretase-modulating activity: Aβtotal in supernatant of SKNBE2 cells carrying hAPP 695 wild type (Alphalisa); assay type: cell-based; conditions: SKNBE2 human neuroblastoma cells carrying hAPP 695 wild type, overnight incubation, Aβtotal in cell supernatant
Method in brief: as §1

Aβ38 = assay: In vivo efficacy: brain soluble Aβ38 in non-transgenic rodents (MSD electrochemiluminescence multiplex); set-up: species or system mouse; conditions: Mus musculus, po, 4 h, dose 30 mg/kg oral dosing, brain soluble fraction, animals sacrificed after 4 h, untreated animals (Ctrl) set at 100, read-out: Aβ38 (% vs Ctrl)_Mean
Excerpt: To determine whether acute administration of an Aβ38 increasing agents would increase Aβ38 levels in vivo, non-transgenic rodents, e.g. mice or rats were used. Animals treated with the Aβ38 increasing agents were examined and compared to those untreated or treated with vehicle and brain levels of soluble Aβ42, Aβ40, Aβ38, and Aβ37 were quantitated by MSD electrochemiluminescence detection technology. Treatment periods varied from hours (h) to days and were adjusted based on the results of the Aβ38 increase once a time course of onset of effect could be established.
A typical protocol for measuring Aβ38 increase in vivo is shown but it is only one of many variations that could be used to optimize the levels of detectable Aβ. For example, Aβ38 increasing agents were formulated in 20% of Captisol® (a sulfobutyl ether of β-cyclodextrin) in water or 20% hydroxypropyl βcyclodextrin. The Aβ38 increasing agents were administered as a single oral dose or by any acceptable route of administration to overnight fasted animals. After 4 h, the animals were sacrificed and Aβ38 levels were analysed.
Blood was collected by decapitation and exsanguinations in EDTA-treated collection tubes. Blood was centrifuged at 1900 g for 10 minutes (min) at 4° C. and the plasma recovered and flash frozen for later analysis. The brain was removed from the cranium and hindbrain. The cerebellum was removed and the left and right hemisphere were separated. The left hemisphere was stored at −18° C. for quantitative analysis of test compound levels. The right hemisphere was rinsed with phosphate-buffered saline (PBS) buffer and immediately frozen on dry ice and stored at −80° C. until homogenization for biochemical assays.
Mouse brains from non-transgenic animals were resuspended in 8 volumes of 0.4% DEA (diethylamine)/50 mM NaCl containing protease inhibitors (Roche-11873580001 or 04693159001) per gram of tissue, e.g. for 0.158 g brain, add 1.264 ml of 0.4% DEA. All samples were homogenized in the FastPrep-24 system (MP Biomedicals) using lysing matrix D (MPBio #6913-100) at 6 m/s for 20 seconds. Homogenates were centrifuged at 20800×g for 5 min and supernatants collected. Supernatants were centrifuged at 221.300×g for 50 min. The resulting high speed supernatants were then transferred to fresh eppendorf tubes. Nine parts of supernatant were neutralized with 1 part 0.5 M Tris-HCl pH 6.8 and used to quantify Aβ.
To quantify the amount of Aβ42, Aβ40, Aβ38, and Aβ37 in the soluble fraction of the brain homogenates, simultaneous specific detection of Aβ42, Aβ40, Aβ38, and Aβ37 was performed using MSD's electro-chemiluminescence multiplex detection technology. In this assay purified monoclonal antibodies specific for Abeta37 (JRD/Aβ37/3), Abeta38 (J&JPRD/Aβ38/5), Abeta40 (JRF/cAβ40/28), and Abeta42 (JRF/cAβ42/26) were coated on MSD 4-plex plates. Briefly, the standards (a dilution of synthetic Aβ42, Aβ40, Aβ38, and Aβ37) were prepared in 1.5 ml Eppendorf tube in Ultraculture, with final concentrations ranging from 10000 to 0.3 pg/m. The samples and standards were co-incubated with Sulfo-tag labelled JRF/rAβ/2 antibody to the N-terminus of Aβ as detector antibody. 50 μl of conjugate/sample or conjugate/standards mixtures were then added to the antibody-coated plate. The plate was allowed to incubate overnight at 4° C. in order to allow formation of the antibody-amyloid complex. Following this incubation and subsequent wash steps the assay was finished by adding read buffer according to the manufacturer's instructions (MesoScale Discovery, Gaitherburg, Md.).
The SULFO-TAG emits light upon electrochemical stimulation initiated at the electrode. MSD Sector instrument SI6000 was used for signal read-out.
In this model a Aβ38 increase compared to untreated animals would be advantageous, in particular a Aβ38 increase with at least 10%, more in particular a Aβ38 increase with at least 20%. […]

| Structure (SMILES) | IC50 (γ-secretase [1]) | IC50 (γ-secretase [2]) | response vs control in vivo at 30 mg/kg (Aβ38) |
| --- | --- | --- | --- |
| COc1cccc(CN2C(=O)c3ccc(-n4cnc(C)c4)c(=O)n3C[C@H]2C)c1 [compound 132] | 2.14 µM | > 10 µM | 84% |
| Cc1cn(-c2ccc3n(c2=O)C[C@@H](C)N(Cc2ccc(F)c(F)c2)C3=O)cn1 [compound 133] | 1.51 µM | > 10 µM | 84% |
| Cc1cn(-c2ccc3n(c2=O)C[C@@H](C)N(Cc2cc(OC(F)(F)F)cc(C(F)(F)F)c2)C3=O)cn1 [compound 140] | 0.06 µM | > 10 µM | 96% |
| Cc1cn(-c2ccc3n(c2=O)C[C@@H](C)N(Cc2cc(Br)cc(C(F)(F)F)c2)C3=O)cn1 [compound 145] | 0.11 µM | > 10 µM | 102% |
| Cc1cn(-c2cc(F)c3n(c2=O)C[C@@H](C)N(Cc2cc(C(F)(F)F)cc(C(F)(F)F)c2)C3=O)cn1 [compound 158] | 0.46 µM | > 10 µM | 120% |

More lines, in order of falling IC50 (γ-secretase [1]), values ahead:

| IC50 (γ-secretase [1]) | IC50 (γ-secretase [2]) | Structure (SMILES) | response vs control in vivo at 30 mg/kg (Aβ38) |
| --- | --- | --- | --- |
| 0.1 µM | > 10 µM | Cc1cn(-c2ccc3n(c2=O)C[C@@H](C)N(Cc2cc(CC(F)(F)F)cc(C(F)(F)F)c2)C3=O)cn1 [compound 134] | 138% |
| 0.05 µM | > 10 µM | Cc1cn(-c2ccc3n(c2=O)C[C@@H](C)N(Cc2cc(OCC(F)(F)F)cc(C(F)(F)F)c2)C3=O)cn1 [compound 166] | 127% |
| 0.03 µM | 6.46 µM | Cc1cn(-c2ccc3n(c2=O)C[C@@H](C)N(Cc2c[nH]c4cc(F)c(Cl)cc24)C3=O)cn1 [compound 195] | 123% |
